Columns and labels:
Test in all cases: relative viability (nuclei count vs DMSO), 5 days (fraction); higher = more cells survive
RO-3306 + Vorinostat = compound: C1=CC2=C(C=CC(=C2)C=C3C(=O)NC(=NCC4=CC=CS4)S3)N=C1 [RO-3306] + O=C(CCCCCCC(=O)Nc1ccccc1)NO [Vorinostat] (partner 1 µM)
Outline: (§1)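 One day after seeding in 1536-well plates, lung cancer cell lines were dosed by pin tool. Dosing was either single-drug or a fixed anchor-drug dose plus five library-drug doses (not always all listed) in √10 steps. After 5 days, nuclei were stained in one fix-and-stain step and counted on 4× images, and relative viability is the nuclei count of treated wells over that of vehicle wells, given as the median of duplicate plates.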

[1] = compound: O=S(=O)(c1ccccc1)N(CC(F)(F)F)c1ccc(C(O)(C(F)(F)F)C(F)(F)F)cc1 + Cc1nc(Nc2ncc(C(=O)Nc3c(C)cccc3Cl)s2)cc(N2CCN(CCO)CC2)n1 [Dasatinib] (partner 0.075 µM)
Outline: as §1

RO-3306 + Pemetrexed = compound: C1=CC2=C(C=CC(=C2)C=C3C(=O)NC(=NCC4=CC=CS4)S3)N=C1 [RO-3306] + Nc1nc2[nH]cc(CCc3ccc(C(=O)N[C@@H](CCC(=O)O)C(=O)O)cc3)c2c(=O)[nH]1 [Pemetrexed] (partner 0.2 µM)
Outline: as §1

RO-3306 + Navitoclax = compound: C1=CC2=C(C=CC(=C2)C=C3C(=O)NC(=NCC4=CC=CS4)S3)N=C1 [RO-3306] + CC1(C)CCC(c2ccc(Cl)cc2)=C(CN2CCN(c3ccc(C(=O)NS(=O)(=O)c4ccc(N[C@H](CCN5CCOCC5)CSc5ccccc5)c(S(=O)(=O)C(F)(F)F)c4)cc3)CC2)C1 [Navitoclax] (partner 0.5 µM)
Outline: as §1

Row | Cell Line | relative viability (RO-3306 + Vorinostat; first compound 0.01 µM) | relative viability (RO-3306 + Vorinostat; first compound 0.03162 µM) | relative viability (RO-3306 + Vorinostat; first compound 0.1 µM) | relative viability (RO-3306 + Vorinostat; first compound 0.3162 µM) | relative viability (RO-3306 + Vorinostat; first compound 1 µM) | relative viability ([1]; first compound 0.8 µM) | relative viability ([1]; first compound 2.53 µM) | relative viability ([1]; first compound 8 µM) | relative viability (RO-3306 + Pemetrexed; first compound 0.01 µM) | relative viability (RO-3306 + Pemetrexed; first compound 0.03162 µM) | relative viability (RO-3306 + Pemetrexed; first compound 0.1 µM) | relative viability (RO-3306 + Pemetrexed; first compound 0.3162 µM) | relative viability (RO-3306 + Pemetrexed; first compound 1 µM) | relative viability (RO-3306 + Navitoclax; first compound 0.01 µM) | relative viability (RO-3306 + Navitoclax; first compound 0.03162 µM) | relative viability (RO-3306 + Navitoclax; first compound 0.1 µM) | relative viability (RO-3306 + Navitoclax; first compound 0.3162 µM) | relative viability (RO-3306 + Navitoclax; first compound 1 µM)
1 | NCI-H2228 | 0.648 | 0.737 | 0.615 | 0.612 | 0.368 | 0.415 | 0.401 | 0.363 | 0.356 | 0.36 | 0.347 | 0.355 | 0.265 | 1.19 | 0.805 | 0.673 | 1.07 | 0.62
2 | SK-MES-1 | 1.35 | 1.12 | 1.12 | 1.32 | 1.08 | 0.318 | 0.332 | 0.255 | 1.14 | 1 | 0.981 | 0.968 | 0.938 | 1.36 | 1.25 | 1.22 | 1.36 | 1.2
3 | NCI-H2009 | 0.797 | 0.739 | 0.677 | 0.81 | 0.712 | 0.241 | 0.249 | 0.302 | 1.11 | 1.12 | 1.05 | 0.988 | 1.01 | 1.2 | 1.14 | 1.17 | 1.09 | 1.13
4 | COR-L 105 | 0.779 | 0.773 | 0.77 | 0.759 | 0.751 | 0.299 | 0.4 | 0.363 | 1.25 | 0.993 | 1.04 | 0.913 | 0.95 | 0.823 | 0.814 | 0.742 | 0.842 | 0.688
5 | NCI-H3122 | 1.07 | 0.825 | 0.993 | 1.19 | 1.06 | 0.725 | 0.525 | 0.817 | 0.203 | 0.193 | 0.456 | 0.195 | 0.197 | 1.03 | 1.03 | 0.983 | 1.05 | 1.07
6 | CAL-12T | 1.08 | 0.66 | 0.647 | 0.809 | 0.694 | 0.331 | 0.216 | 0.392 | 1.38 | 1.35 | 1.17 | 1.15 | 1.26 | 1.01 | 1.07 | 1.32 | 1.16 | 1.13
7 | NCI-H1355 | 0.694 | 0.538 | 0.644 | 0.6 | 0.591 | 0.771 | 0.661 | 0.663 | 1.15 | 0.976 | 0.961 | 0.97 | 1.05 | 1.12 | 0.915 | 0.949 | 1.04 | 0.946
8 | NCI-H1650 | 0.648 | 0.545 | 0.472 | 0.558 | 0.613 | 0.343 | 0.316 | 0.389 | 0.517 | 0.351 | 0.324 | 0.335 | 0.38 | 1.15 | 1.11 | 1.19 | 1.19 | 0.974

Reference: the supplement of paper PMC10307832
